What was measured:
[1] = biological target: T1, Poly [ADP-ribose] polymerase tankyrase-2 (Homo sapiens, UniProt Q9H2K2); test: Biochemical Assay: The autoparsylation activity of the TNKS 1/2 or PARP1/2 enzymes was measured by the liquid chromatography-mass spectrometry (LC/MS) detection of nicotinamide as readout. Compound activity in inhibiting the TNKS and PARP autoparsylation was evaluated by IC50 measurements. In the compound screening assays, the reaction is composed of 5 uL of compound in […]-point serial …
T1 sequence (Q9H2K2 whole entry): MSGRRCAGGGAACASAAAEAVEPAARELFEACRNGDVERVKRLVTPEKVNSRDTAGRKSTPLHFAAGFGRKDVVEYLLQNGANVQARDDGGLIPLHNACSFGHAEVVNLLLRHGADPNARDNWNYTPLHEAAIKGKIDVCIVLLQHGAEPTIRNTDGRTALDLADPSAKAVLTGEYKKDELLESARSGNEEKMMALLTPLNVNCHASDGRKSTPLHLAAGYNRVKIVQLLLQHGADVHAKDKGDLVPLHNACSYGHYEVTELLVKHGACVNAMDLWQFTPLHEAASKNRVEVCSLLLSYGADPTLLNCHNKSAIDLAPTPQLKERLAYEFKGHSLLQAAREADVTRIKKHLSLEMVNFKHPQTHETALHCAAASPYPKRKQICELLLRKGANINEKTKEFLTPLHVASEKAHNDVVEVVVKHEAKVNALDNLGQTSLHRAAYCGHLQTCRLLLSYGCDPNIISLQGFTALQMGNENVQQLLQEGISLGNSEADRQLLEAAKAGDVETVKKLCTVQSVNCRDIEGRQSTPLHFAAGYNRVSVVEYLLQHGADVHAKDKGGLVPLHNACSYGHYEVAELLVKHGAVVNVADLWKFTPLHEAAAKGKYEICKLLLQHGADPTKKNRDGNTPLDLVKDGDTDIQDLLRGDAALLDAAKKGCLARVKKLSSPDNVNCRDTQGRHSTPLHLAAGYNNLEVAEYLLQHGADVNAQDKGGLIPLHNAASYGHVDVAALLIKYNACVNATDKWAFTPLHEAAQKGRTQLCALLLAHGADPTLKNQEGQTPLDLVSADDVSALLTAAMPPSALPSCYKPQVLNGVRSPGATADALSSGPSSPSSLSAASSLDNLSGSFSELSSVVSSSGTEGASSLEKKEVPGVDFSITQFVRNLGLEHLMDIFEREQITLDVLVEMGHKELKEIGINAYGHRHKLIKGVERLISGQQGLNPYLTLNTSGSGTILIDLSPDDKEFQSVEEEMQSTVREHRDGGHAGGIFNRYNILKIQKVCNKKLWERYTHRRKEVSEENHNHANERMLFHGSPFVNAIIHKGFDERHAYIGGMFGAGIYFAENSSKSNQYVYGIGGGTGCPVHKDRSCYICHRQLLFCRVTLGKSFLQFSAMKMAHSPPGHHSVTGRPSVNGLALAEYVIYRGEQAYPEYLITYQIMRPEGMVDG

[2] = biological target: T2, Poly [ADP-ribose] polymerase tankyrase-1 (Homo sapiens, UniProt O95271); test: as above
T2 sequence (O95271 whole entry): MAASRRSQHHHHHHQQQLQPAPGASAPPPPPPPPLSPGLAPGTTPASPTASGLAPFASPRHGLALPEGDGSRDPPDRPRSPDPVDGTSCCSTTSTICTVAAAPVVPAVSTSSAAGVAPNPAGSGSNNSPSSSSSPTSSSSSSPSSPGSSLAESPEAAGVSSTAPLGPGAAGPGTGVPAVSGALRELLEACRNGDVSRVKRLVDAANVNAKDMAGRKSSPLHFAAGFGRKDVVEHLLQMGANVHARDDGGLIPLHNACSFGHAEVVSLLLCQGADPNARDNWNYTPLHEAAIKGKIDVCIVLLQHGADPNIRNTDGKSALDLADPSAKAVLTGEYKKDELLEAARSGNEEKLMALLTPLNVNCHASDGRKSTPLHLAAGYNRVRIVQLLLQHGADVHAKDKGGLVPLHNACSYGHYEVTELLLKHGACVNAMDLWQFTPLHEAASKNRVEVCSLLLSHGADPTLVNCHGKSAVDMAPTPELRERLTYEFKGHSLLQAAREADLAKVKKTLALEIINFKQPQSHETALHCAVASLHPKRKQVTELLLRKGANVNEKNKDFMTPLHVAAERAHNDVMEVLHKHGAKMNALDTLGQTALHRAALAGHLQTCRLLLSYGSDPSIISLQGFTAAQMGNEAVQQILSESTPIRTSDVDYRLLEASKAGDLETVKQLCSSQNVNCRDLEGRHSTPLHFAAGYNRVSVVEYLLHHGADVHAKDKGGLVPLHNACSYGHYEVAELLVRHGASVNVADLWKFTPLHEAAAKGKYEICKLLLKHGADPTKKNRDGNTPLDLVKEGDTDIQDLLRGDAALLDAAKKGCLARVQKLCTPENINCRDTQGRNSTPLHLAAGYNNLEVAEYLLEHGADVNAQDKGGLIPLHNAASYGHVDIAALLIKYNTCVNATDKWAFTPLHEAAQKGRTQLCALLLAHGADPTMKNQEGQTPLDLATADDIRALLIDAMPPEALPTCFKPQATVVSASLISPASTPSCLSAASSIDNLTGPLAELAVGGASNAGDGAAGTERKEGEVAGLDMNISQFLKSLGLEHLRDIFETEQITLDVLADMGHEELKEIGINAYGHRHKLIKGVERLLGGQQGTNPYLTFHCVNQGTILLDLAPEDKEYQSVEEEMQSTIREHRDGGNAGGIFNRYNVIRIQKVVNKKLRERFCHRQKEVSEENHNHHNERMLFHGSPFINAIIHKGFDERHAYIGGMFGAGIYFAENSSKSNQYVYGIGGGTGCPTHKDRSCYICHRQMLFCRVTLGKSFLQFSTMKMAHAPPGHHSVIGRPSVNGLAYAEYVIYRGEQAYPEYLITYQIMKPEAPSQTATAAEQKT

| IC50 [1] [nM] | IC50 [2] [nM] | SMILES |
| --- | --- | --- |
| 1580 | 6400 | O=C(CCc1c[nH]c2ccccc12)N(Cc1nc2c(c(=O)[nH]1)COCC2)Cc1cccs1 |
| 177 | 1160 | O=c1[nH]c(CN(Cc2cccs2)S(=O)(=O)Cc2ccccc2)nc2c1COCC2 |
| 910 | 5120 | O=c1[nH]c(CN(Cc2cccs2)S(=O)(=O)CCc2ccccc2)nc2c1COCC2 |
